Patent US5859007A, “CCK or gastrin modulating benzo [b][1,4] diazepines derivatives” (Glaxo Wellcome Inc., priority 1994, dated 1999)

test system: isolated guinea pig gallbladder; assay: Functional activity in isolated guinea pig gallbladder preparation; type: cell-based; conditions: 1 × 10^-6 M test compound; expressed as % CCK-induced maximal response
Protocol: 3. GUINEA PIG GALL BLADDER ASSAY
Gallbladders are removed from guinea pigs sacrificed by cervical dislocation. The isolated gallbladders are cleaned of adherent connective tissue and cut into two rings from each animal (2-4 mm in length). The rings are subsequently suspended in organ chambers containing a physiological salt solution (118.4 mM NaCl, 4.7 mM KCl, 1.2 mM MgSO4, 2.5 mM CaCl2, 1.2 mM KH2 […], 25 mM NaHCO3, 11.1 mM dextrose). The bathing solution is maintained at 37° C. and aerated with 95% O2 /5% CO2. Tissues are connected via gold chains and stainless steel mounting wires to isometric force displacement transducers (Grass, Model FT03 D). Responses are then recorded on a polygraph (Grass, Model 7E).
Rings are gradually stretched (over a 120 min. period) to a basal resting tension of 1 gm which is maintained throughout the experiment. During the basal tension adjustment period, the rings are exposed to acetylcholine (10^-6 M) four times to verify tissue contractility. The tissues are then exposed to a submaximal dose of sulfated CCK-8 (Sigma, 3×10^-9 M). After obtaining a stable response, the tissues are washed out 3 times rapidly and every 5 to 10 minutes for 1 hour to reestablish a stable baseline.
Compounds are dissolved in dimethylsulfoxide ([…]) followed by a concentration-response curve to sulfated CCK-8 (10^-10 to 10^-6 M) in the presence of the highest dose of the test compound. As a final test, ACH (10 mM) is added to induce maximal contraction. A minimum of three determinations of activity are made for each test compound.

With `COc1ccc(N(C(=O)CN2C(=O)C(CC(=O)Nc3ccccc3)C(=O)N(c3ccccc3)c3ccccc32)C(C)C)cc1` (centres unmarked) [Example 39, 2-(2,4-dioxo-5-phenyl-3-phenylcarbamoylmethyl-2,3,4,5-tetrahydro-benzo[b][1,4]diazepin-1-yl)-N-isopropyl-N-(4-methoxy-phenyl)-acetamide] the “%Contraction (1 × 10^-6 M)” value was 57%.

same assay, conditions: Cavia porcellus, 1 × 10^-6 M test compound; expressed as % CCK-induced maximal response; read-out: %Contraction (1 × 10^-6 M)

Going from `COc1ccc(N(C(=O)CN2C(=O)C(Cc3c[nH]c4ccccc34)C(=O)N(c3ccccc3)c3ccccc32)C(C)C)cc1` (centres unmarked) [Example 22, 2-[3-(1H-indol-3-ylmethyl)-2,4-dioxo-5-phenyl-2,3,4,5-tetrahydro-benzo[b][1,4]diazepin-1-yl]-N-isopropyl-N-(4-methoxy-phenyl) acetamide] to `COc1ccc(N(C(=O)CN2C(=O)C(Cc3coc4ccccc34)C(=O)N(c3ccccc3)c3ccccc32)C(C)C)cc1` (centres unmarked) [Example 32], the activation at 1 µM falls from 61% to 38%.

Compared with `COc1ccc(N(C(=O)CN2C(=O)C(C)(CC(=O)Nc3cccc(F)c3)C(=O)N(c3ccccc3)c3ccccc32)C(C)C)cc1` (centres unmarked) [Example 25, N-Isopropyl-N-(4-methoxy-phenyl)-2-[3-(3-fluoro-phenylcarbamoylmethyl)-3-methyl-2,4-dioxo-5-phenyl-2,3,4,5-tetrahydro-benzo[b][1,4]diazepin-1-yl]acetamide], `COc1ccc(N(C(=O)CN2C(=O)C(C)(CC(=O)Nc3ccccc3)C(=O)N(c3ccc(Cl)cc3)c3ccccc32)C(C)C)cc1` (centres unmarked) [Example 41] is lower in activation at 1 µM: 88% for the first, 40% for the second.

Compared with `COCC1(CC(=O)Nc2ccccc2)C(=O)N(CC(=O)N(c2ccc(OC)cc2)C(C)C)c2ccccc2N(c2ccccc2)C1=O` (centres unmarked) [Example 26, N-Isopropyl-2-(3-methoxymethyl-2,4-dioxo-5-phenyl-3-phenylcarbamoylmethyl-2,3,4,5-tetrahydro-benzo[b][1,4]diazepin-1-yl)-N-(4-methoxy-phenyl)-acetamide], `COc1ccc(N(C(=O)CN2C(=O)C(CC(=O)O)(CC(=O)Nc3ccccc3)C(=O)N(c3ccccc3)c3ccccc32)C(C)C)cc1` (centres unmarked) [Example 29, {1-[Isopropyl-(4-methoxy-phenyl)-carbamoylmethyl]-2,4-dioxo-5-phenyl-3-phenylcarbamoylmethyl-2,3,4,5-tetrahydro-1H-benzo[b][1,4]diazepin-3-yl}acetic acid] is lower in activation at 1 µM: 91% for the first, 65% for the second.

Going from `COc1ccc(N(C(=O)CN2C(=O)C(CN(C)C(=O)c3ccccc3)C(=O)N(c3ccccc3)c3ccccc32)C(C)C)cc1` (centres unmarked) [Example 28, N-{1-[Isopropyl-(4-methoxy-phenyl)-carbamoylmethyl]-2,4-dioxo-5 phenyl-2,3,4,5-tetrahydro-1H-benzo[b][1,4]diazepin-3-ylmethyl}-N-methyl benzamide] to `COc1ccc(N(C(=O)CN2C(=O)C(Cc3cccc4ccccc34)C(=O)N(c3ccccc3)c3ccccc32)C(C)C)cc1` (centres unmarked) [Example 34, N-Isopropyl-N-(4-methoxy-phenyl)-2-(3-naphthalen-1-ylmethyl-2,4-dioxo-5-phenyl-2,3,4,5-tetrahydro-benzo[b][1,4]diazepin-1-yl) acetamide], the activation at 1 µM rises from 3% to 47%.

First: COc1ccc(N(C(=O)CN2C(=O)C(C)(Cc3n[nH]c4ccccc34)C(=O)N(c3ccccc3)c3ccccc32)C(C)C)cc1 (centres unmarked) [Example 30, 2-[3-(1H-Indazol-3-ylmethyl)-3-methyl-2,4-dioxo-5-phenyl-2,3,4,5-tetrahydro-benzo[b][1,4]diazepin-1-yl]-N-isopropyl-N-(4-methoxy-phenyl) acetamide]
Second: COc1ccc(N(C(=O)CN2C(=O)C(C)(Cc3coc4ccccc34)C(=O)N(c3ccccc3)c3ccccc32)C(C)C)cc1 (centres unmarked) [Example 33]
The activation at 1 µM of the first is higher: 75% for the first, 53% for the second.

Compared with `COc1ccc(N(C(=O)CN2C(=O)C(C)(Cc3cccc4ccccc34)C(=O)N(c3ccccc3)c3ccccc32)C(C)C)cc1` (centres unmarked) [Example 35, N-Isopropyl-N-(4-methoxy-phenyl)-2-(3-methyl-3-naphthalen-1-ylmethyl-2,4-dioxo-5-phenyl-2,3,4,5-tetrahydro-benzo[b][1,4]diazepin-1-yl) acetamide], `COc1ccc(N(C(=O)CN2C(=O)C(C)(Cc3ccc4ccccc4c3)C(=O)N(c3ccccc3)c3ccccc32)C(C)C)cc1` (centres unmarked) [Example 38, N-Isopropyl-N-(4-methoxy-phenyl)-2-(3-methyl-3-naphthalen-2-ylmethyl-2,4-dioxo-5-phenyl-2,3,4,5-tetrahydro-benzo[b][1,4]diazepin-1-yl) acetamide] is lower in activation at 1 µM: 44% for the first, 30% for the second.

Going from `COc1ccc(N(C(=O)CN2C(=O)C(Cc3ccc4ccccc4c3)C(=O)N(c3ccccc3)c3ccccc32)C(C)C)cc1` (centres unmarked) [Example 36, N-Isopropyl-N-(4-methoxy-phenyl)-2-(3-naphthalen-2-ylmethyl-2,4-dioxo-5-phenyl-2,3,4,5-tetrahydro-benzo[b][1,4]diazepin-1-yl) acetamide] to `COc1ccc(N(C(=O)CN2C(=O)C(Cc3csc4ccccc34)C(=O)N(c3ccccc3)c3ccccc32)C(C)C)cc1` (centres unmarked) [Example 37, 2-(3-Benzo[b]thiophen-3-ylmethyl-2,4-dioxo-5-phenyl-2,3,4,5-tetrahydro-benzo[b][1,4]diazepin-1-yl)-N-isopropyl-N-(4-methoxy-phenyl) acetamide], the activation at 1 µM rises from 19% to 46%.

Going from `COc1ccc(N(C(=O)CN2C(=O)C(C)(Cc3csc4ccccc34)C(=O)N(c3ccccc3)c3ccccc32)C(C)C)cc1` (centres unmarked) [Example 40, 2-(3-Benzo[b]thiophen-3-ylmethyl-3-methyl-2,4-dioxo-5-phenyl-2,3,4,5-tetrahydro-benzo[b][1,4]diazepin-1-yl)-N-isopropyl-N-(4-methoxy-phenyl) acetamide] to `COc1ccc(N(C(=O)CN2C(=O)C(Cc3nn(Cc4ccccc4)c4ccccc34)(OC)C(=O)N(c3ccccc3)c3ccccc32)C(C)C)cc1` (centres unmarked) [Example 42, 2-[3-(1-Benzyl-1H-Indazol-3-ylmethyl)-3-methoxy-2,4-dioxo-5-phenyl-2,3,4,5-tetrahydro-benzo[b][1,4]diazepin-1-yl]-N-isopropyl-N-(4-methoxy-phenyl) acetamide], the activation at 1 µM rises from 10% to 16%.

same assay, conditions: Cavia porcellus, 3 × 10^-5 M test compound; expressed as % CCK-induced maximal response; read-out: % Contraction (3 × 10^-5 M)

First: COc1ccc(N(C(=O)CN2C(=O)C(Cc3c[nH]c4ccccc34)C(=O)N(c3ccccc3)c3ccccc32)C(C)C)cc1 (centres unmarked) [Example 22, 2-[3-(1H-indol-3-ylmethyl)-2,4-dioxo-5-phenyl-2,3,4,5-tetrahydro-benzo[b][1,4]diazepin-1-yl]-N-isopropyl-N-(4-methoxy-phenyl) acetamide]
Second: COc1ccc(N(C(=O)CN2C(=O)C(C)(Cc3c[nH]c4ccccc34)C(=O)N(c3ccccc3)c3ccccc32)C(C)C)cc1 (centres unmarked) [Example 23, 2-[3-(1H-indol-3-ylmethyl)-3-methyl-2,4-dioxo-5-phenyl-2,3,4,5-tetrahydro-benzo[b][1,4]diazepin-1-yl]-N-isopropyl-N-(4-methoxy-phenyl) acetamide]
The activation at 30 µM of the first is higher: 71% for the first, 50% for the second.

Going from `COc1ccc(N(C(=O)CN2C(=O)C(C)(Cc3cn(C)c4ccccc34)C(=O)N(c3ccccc3)c3ccccc32)C(C)C)cc1` (centres unmarked) [Example 24, 2-[3-(N-methyl-indol-3-ylmethyl)-3-methyl-2,4-dioxo-5-phenyl-2,3,4,5-tetrahydro-benzo[b][1,4]diazepin-1-yl]-N-isopropyl-N-(4-methoxy-phenyl) acetamide] to `COc1ccc(N(C(=O)CN2C(=O)C(C)(Cc3n[nH]c4ccccc34)C(=O)N(c3ccccc3)c3ccccc32)C(C)C)cc1` (centres unmarked) [Example 30, 2-[3-(1H-Indazol-3-ylmethyl)-3-methyl-2,4-dioxo-5-phenyl-2,3,4,5-tetrahydro-benzo[b][1,4]diazepin-1-yl]-N-isopropyl-N-(4-methoxy-phenyl) acetamide], the activation at 30 µM rises from 34% to 70%.

Going from `COc1ccc(N(C(=O)CN2C(=O)C(Cc3nn(Cc4ccccc4)c4ccccc34)C(=O)N(c3ccccc3)c3ccccc32)C(C)C)cc1` (centres unmarked) [Example 27, 2-[3-(1-Benzyl-1H-indazol-3-ylmethyl)-2,4-dioxo-5-phenyl-2,3,4,5-tetrahydro-benzo[b][1,4]diazepin-1-yl]-N-isopropyl-N-(4-methoxy-phenyl) acetamide] to `COc1ccc(N(C(=O)CN2C(=O)C(CC(=O)O)(CC(=O)Nc3ccccc3)C(=O)N(c3ccccc3)c3ccccc32)C(C)C)cc1` (centres unmarked) [Example 29, {1-[Isopropyl-(4-methoxy-phenyl)-carbamoylmethyl]-2,4-dioxo-5-phenyl-3-phenylcarbamoylmethyl-2,3,4,5-tetrahydro-1H-benzo[b][1,4]diazepin-3-yl}acetic acid], the activation at 30 µM rises from 40% to 85%.
